Results published in ChEMBL document CHEMBL1155654, “Acylated flavonol glycosides from the flower of Inula britannica” (J Nat Prod, 2000).
≈ marks a conversion by molar mass, not a printed value. Calls of active or inactive are those of the source. The calls are words filed in the database; no cut-off is given here.

How the values were obtained:
[1] = system: HL-60; assay: Antioxidant activity in human HL60 cells assessed as reduction of cytochrome-c […]; assay type: functional, cell-based
[2] = system: HL-60; assay: Antioxidant activity in human HL60 cells assessed as inhibition of TPA-induced free radical formation; assay type: functional, cell-based
[3] = system: Radical scavenging activity; assay: Antioxidant activity assessed as DPPH free radical scavenging activity; assay type: functional

Row | Compound | IC50 [1] | Activity [2] | IC50 [3]
1 | COc1c(O[C@@H]2O[C@H](COC(=O)C(C)C)[C@@H](O)[C@H](O)[C@H]2O)cc2oc(-c3ccc(O)c(O)c3)c(O)c(=O)c2c1O | 10.6 µg/mL (≈ 18.8 µM) | Active | 14.3 µg/mL (≈ 25.3 µM)
2 | COc1c(O[C@@H]2O[C@H](COC(=O)CC(C)C)[C@@H](O)[C@H](O)[C@H]2O)cc2oc(-c3ccc(O)c(O)c3)c(O)c(=O)c2c1O | 11.7 µg/mL (≈ 20.2 µM) | Active | 14.3 µg/mL (≈ 24.7 µM)
3 | CCC(C)C(=O)OC[C@H]1O[C@@H](Oc2cc3oc(-c4ccc(O)c(O)c4)c(O)c(=O)c3c(O)c2OC)[C@H](O)[C@@H](O)[C@@H]1O (some centres undefined) | 11.2 µg/mL (≈ 19.4 µM) | Active | 23.5 µg/mL (≈ 40.6 µM)
4 | O=c1c(O[C@@H]2O[C@H](CO)[C@@H](O)[C@H](O)[C@H]2O)c(-c2ccc(O)cc2)oc2cc(O)cc(O)c12 [ASTRAGALIN] | > 50 µg/mL | – | > 100 µg/mL
5 | COc1c(O)cc2oc(-c3ccc(O)c(O)c3)c(OC)c(=O)c2c1O [AXILLARIN] | 2.9 µg/mL (≈ 8.37 µM) | Active | 12.4 µg/mL (≈ 35.8 µM)
6 | O=C(O)c1cc(O)c(O)c(O)c1 [GALLIC ACID] | 3.2 µg/mL (≈ 18.8 µM) | – | 3.7 µg/mL (≈ 21.7 µM)
7 | COc1c(O[C@@H]2O[C@H](CO)[C@@H](O)[C@H](O)[C@H]2O)cc2oc(-c3ccc(O)cc3)cc(=O)c2c1O [HISPIDULOSIDE] | > 50 µg/mL | – | > 100 µg/mL
8 | O=c1c(O)c(-c2ccc(O)cc2)oc2cc(O)cc(O)c12 [KAEMPFEROL] | 10 µg/mL (≈ 34.9 µM) | – | 74.4 µg/mL (≈ 260 µM)
9 | O=c1cc(-c2ccc(O)c(O)c2)oc2cc(O)cc(O)c12 [LUTEOLIN] | 12.1 µg/mL (≈ 42.3 µM) | Active | 7.2 µg/mL (≈ 25.2 µM)
10 | COc1c(O)cc2oc(-c3ccc(O)c(O)c3)c(O)c(=O)c2c1O [PATULETIN] | 10.1 µg/mL (≈ 30.4 µM) | Active | 9 µg/mL (≈ 27.1 µM)
11 | COc1c(O[C@@H]2O[C@H](CO)[C@@H](O)[C@H](O)[C@H]2O)cc2oc(-c3ccc(O)c(O)c3)c(O)c(=O)c2c1O [PATULITRIN] | 8.1 µg/mL (≈ 16.4 µM) | Active | 10.3 µg/mL (≈ 20.8 µM)
